The source made the active and inactive calls. No rule for the calls is given here.
Target: Muscarinic acetylcholine receptor M4 (Rattus norvegicus) (UniProt P08485)
Experiment: acetylcholine potency shift at rat M4, rM4 cells, calcium, ACh concentration-response fold shift (AID 449767)
Conditions: acetylcholine CRC fold-shift, at 30 µM, hits give high values

Sequence of Muscarinic acetylcholine receptor M4 (Rattus norvegicus) (P08485 whole entry, looked up): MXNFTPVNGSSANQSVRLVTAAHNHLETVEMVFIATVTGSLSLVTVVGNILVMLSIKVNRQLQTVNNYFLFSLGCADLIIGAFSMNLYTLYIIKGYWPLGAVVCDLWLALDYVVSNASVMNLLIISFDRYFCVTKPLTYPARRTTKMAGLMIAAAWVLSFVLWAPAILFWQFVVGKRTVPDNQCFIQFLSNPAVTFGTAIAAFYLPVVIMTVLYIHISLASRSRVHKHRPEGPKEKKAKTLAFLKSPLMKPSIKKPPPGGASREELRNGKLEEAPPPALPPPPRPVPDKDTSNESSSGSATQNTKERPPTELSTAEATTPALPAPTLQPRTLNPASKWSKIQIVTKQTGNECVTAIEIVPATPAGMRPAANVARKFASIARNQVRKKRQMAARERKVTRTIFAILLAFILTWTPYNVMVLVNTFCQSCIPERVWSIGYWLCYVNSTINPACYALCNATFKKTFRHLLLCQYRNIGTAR

SMILES	fold shift
COCCCNC(=O)c1sc2nc(OCCN3CCOCC3)cc(C)c2c1N	67
Cc1cc(OCc2ccccn2)nc2sc(C(=O)NCc3cccc(F)c3F)c(N)c12	28
Cc1cc(C)c2c(N)c(C(=O)NCc3ccccc3F)sc2n1	16
Cc1cc(OCc2ccccn2)nc2sc(C(=O)NCc3cc(F)ccc3F)c(N)c12	41
Cc1cc(OCCN2CCOCC2)nc2sc(C(=O)NC3COC3)c(N)c12	40
Cc1cc(OCCN2CCOCC2)nc2sc(C(=O)Nc3ccccc3)c(N)c12	51
Cc1cc(OCCN2CCOCC2)nc2sc(C(=O)NC(C)(C)C)c(N)c12	62
Cc1cc(C)c2c(N)c(C(=O)NCc3ccc(Cl)cc3)sc2n1	48
Cc1cc(OCc2ccncc2)nc2sc(C(=O)NCc3cc(F)ccc3F)c(N)c12	64
Cc1cc(OCc2ccncc2)nc2sc(C(=O)NCc3cccc(F)c3F)c(N)c12	36
Cc1cc(C)c2c(N)c(C(=O)NCc3cccc(F)c3F)sc2n1	18
Cc1cc(C)c2c(N)c(C(=O)NCc3ccc4c(c3)OCO4)sc2n1	40
Cc1cc(OCCN2CCOCC2)nc2sc(C(=O)NC(C)C)c(N)c12	36
Cc1cc(C)c2c(N)c(C(=O)NCc3ccccc3)sc2n1	26

More lines, now with the values ahead:

fold shift	SMILES
37	COc1ccc(CNC(=O)c2sc3nc(OCCN4CCOCC4)cc(C)c3c2N)cc1
9	COc1ccc(CNC(=O)c2sc3nc(OCc4cccnc4)cc(C)c3c2N)cc1
50	COc1ccc(CNC(=O)c2sc3nc(OCc4ccncc4)cc(C)c3c2N)cc1
< 1 (inactive)	COc1ccc(CNC(=O)c2sc3nc(OCCCN(C)C)cc(C)c3c2N)cc1
25	COc1ccc(CNC(=O)c2sc3nc(OCCN4CCCC4)cc(C)c3c2N)cc1
4	COc1ccc(CNC(=O)c2sc3nc(OCc4ccccn4)cc(C)c3c2N)cc1
14	Cc1cc(OCCCN(C)C)nc2sc(C(=O)NCc3cc(F)ccc3F)c(N)c12
42	COc1ccc(CNC(=O)c2sc3nc(C)cc(C)c3c2N)cc1
7	Cc1cc(OCCCN(C)C)nc2sc(C(=O)NC3COC3)c(N)c12

Reference: PubChem BioAssay AID449767 (Vanderbilt High Throughput Screening Facility, 2010)
